The text below walks through data of patent publication US8946205B2, “1,2,4-triazolo[4,3-a]pyridine derivatives and their use as positive allosteric modulators of mGluR2 receptors” (Janssen Pharmaceuticals, Inc., priority 2009, dated 2015).

Data set [1] deals with T1, human mGluR2 receptor (Homo sapiens, UniProt Q14416).
T1 construct: expressed in transfected cells; host or cells: CHO cells (membranes)
In words: [35S]GTPγS binding assay (PAM assay, membranes from CHO cells transfected with the human mGluR2 receptor). The format is biochemical. Particulars: in presence of glutamate at EC20; pEC50 = -log EC50 (mol/L); read-out: GTPγS-hR2 PAM pEC50 (converted). On the procedure:
The [^35S]GTPγS binding assay is a functional membrane-based assay used to study G-protein coupled receptor (GPCR) function whereby incorporation of a non-hydrolysable form of GTP, [^35S]GTPγS (guanosine 5′-triphosphate, labelled with […] ^35S), is measured. The G-protein α subunit catalyzes the exchange of guanosine 5′-diphosphate (GDP) by guanosine triphosphate (GTP) and on activation of the GPCR by an agonist, [^35S]GTPγS, becomes incorporated and cannot be cleaved to continue the exchange cycle (Harper (1998) Current Protocols in Pharmacology 2.6.1-10, John Wiley & Sons, Inc.). […] Here we describe the use of the [^35S]GTPγS binding assay using membranes from cells transfected with the human mGluR2 receptor and adapted from Schaffhauser et al. ((2003) Molecular Pharmacology 4:798-810) for the detection of the positive allosteric modulation (PAM) properties of the compounds of this invention.
CHO-cells were cultured to pre-confluence and stimulated with 5 mM butyrate for 24 h, prior to washing in PBS, and then collected by scraping in homogenisation buffer (50 mM Tris-HCl buffer, pH 7.4, 4° C.). Cell lysates were homogenized briefly using an ultra-turrax homogenizer. The homogenate was centrifuged at 16,000 RPM (Sorvall RC-5C plus rotor SS-34) for 10 minutes and the supernatant discarded. The pellet was resuspended in 5 mM Tris-HCl, pH 7.4 and centrifuged again (18,000 RPM, 20 min, 4° C.). The final pellet was resuspended in 50 mM Tris-HCl, pH 7.4 and stored at −80° C. in appropriate aliquots before use. Protein concentration was determined by the Bradford method (Bio-Rad, USA) with bovine serum albumin as standard.
Measurement of mGluR2 positive allosteric modulatory activity of test compounds was performed as follows. Test compounds and glutamate were diluted in assay buffer containing 10 mM HEPES acid, 10 mM HEPES salt, pH 7.4, 100 mM NaCl, 3 mM MgCl2 and 10 μM GDP. Human mGlu2 receptor-containing membranes were thawed on ice and diluted in assay buffer supplemented with 14 μg/ml saponin. Membranes were pre-incubated with compound alone or together with a predefined (˜EC20) concentration of glutamate (PAM assay) for 30 min at 30° C. After addition of [^35S]GTPγS (f.c. 0.1 nM) microplates were shaken briefly and further incubated to allow [^35S]GTPγS incorporation on activation (30 minutes, 30° C.). Final assay mixtures contained 7 μg of membrane protein in 10 mM HEPES acid, 10 mM HEPES salt, pH 7.4, 100 mM NaCl, 3 mM MgCl2,10 μM GDP and 10 μg/ml saponin. Total reaction volume was 200 μl. Reactions were terminated by rapid filtration through Unifilter-96 GF/B filter plates (Packard, Meriden, Conn.) using a 96-well Packard filtermate harvester. Filters were washed 6 times with ice-cold 10 mM NaH2PO4/10 mM Na2HPO4, pH 7.4. Filters were then air-dried, and 40 μl of liquid scintillation cocktail (Microscint-O) was added to each well. Membrane-bound radioactivity was counted in a Microplate Scintillation and Luminescence Counter from Packard.
The concentration-response curves of representative compounds of the present invention—obtained in the presence of EC20 of mGluR2 agonist glutamate to determine positive allosteric modulation (PAM)—were generated using the Lexis software interface (developed at J&J). Data were calculated as % of the control glutamate response, defined as the maximal response that is generated upon addition of glutamate alone. Sigmoid concentration-response curves plotting these percentages versus the log concentration of the test compound were analyzed using non-linear regression analysis. The concentration producing half-maximal effect is then calculated as EC50. The pEC50 values below are calculated as the −log EC50 (wherein EC50 is expressed in mol/L). […]
In general terms: Binding of GTPγS marks nucleotide exchange on a G protein.

Molecules are shown by their SMILES. A value given as a limit tells only on which side of the number the result lay.

T1 sequence (Q14416 19-872): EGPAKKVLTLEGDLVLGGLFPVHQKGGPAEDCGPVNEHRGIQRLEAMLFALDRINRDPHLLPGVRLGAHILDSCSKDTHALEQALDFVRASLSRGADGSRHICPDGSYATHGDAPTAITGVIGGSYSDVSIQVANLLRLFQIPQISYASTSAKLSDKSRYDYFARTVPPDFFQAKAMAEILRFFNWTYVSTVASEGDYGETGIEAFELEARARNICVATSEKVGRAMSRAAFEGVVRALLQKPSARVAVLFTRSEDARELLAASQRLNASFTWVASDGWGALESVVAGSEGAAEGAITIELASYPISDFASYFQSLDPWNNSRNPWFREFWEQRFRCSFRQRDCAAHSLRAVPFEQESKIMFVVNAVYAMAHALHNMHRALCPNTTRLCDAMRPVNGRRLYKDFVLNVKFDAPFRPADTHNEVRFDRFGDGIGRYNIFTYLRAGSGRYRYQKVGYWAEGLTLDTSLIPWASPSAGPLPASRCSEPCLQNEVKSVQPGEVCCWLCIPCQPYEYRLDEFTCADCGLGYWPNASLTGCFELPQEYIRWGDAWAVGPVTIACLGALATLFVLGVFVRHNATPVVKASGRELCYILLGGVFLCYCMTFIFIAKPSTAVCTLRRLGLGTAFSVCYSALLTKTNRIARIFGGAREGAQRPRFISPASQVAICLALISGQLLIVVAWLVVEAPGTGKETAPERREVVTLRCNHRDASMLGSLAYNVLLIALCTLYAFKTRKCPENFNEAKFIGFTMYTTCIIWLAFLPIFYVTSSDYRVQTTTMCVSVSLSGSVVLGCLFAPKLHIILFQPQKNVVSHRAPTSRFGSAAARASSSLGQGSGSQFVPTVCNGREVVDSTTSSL

By melting point is commonly meant the temperature, or range, at which the solid turns liquid. The compound `O[C@H]1CC[C@H](n2ccc3cc(-c4ccn5c(CC6CC6)nnc5c4Cl)ccc32)CC1` [Compound 10] had a melting point above 300 °C. The EC50 in data set [1] was 52.5 nM. For `Cc1ccc(-n2ccc3cc(-c4ccn5c(CC6CC6)nnc5c4C4CC4)ccc32)cn1` [Compound 37], in that order: above 300 °C and 39.8 nM. Regarding `FC(F)(F)Cc1nnc2c(Cl)c(-c3ccc4c(ccn4-c4ncccn4)c3)ccn12` [Compound 6], the EC50 in data set [1] was 33.9 nM. Take `FC(F)(F)c1c(-c2ccc3c(ccn3C3CCOCC3)c2)ccn2c(CC3CC3)nnc12` [Compound 3]: the melting point was found to be 193.1 °C. For the same compound, the EC50 in data set [1] is 28.2 nM. Regarding `Clc1c(-c2ccc3c(ccn3C3CCOCC3)c2)ccn2c(CC3CC3)nnc12` [Compound 2], the melting point was above 300 °C. In data set [1], the EC50 is 64.6 nM.

For `CCOCc1nnc2c(Cl)c(-c3cc(Cl)c4[nH]ccc4c3)ccn12` [Compound 23], in data set [1], the EC50 is 95.5 nM. `Cc1cc(-n2ccc3cc(-c4ccn5c(CC6CC6)nnc5c4Cl)ccc32)ccn1` [Compound 47] came in with a melting point above 300 °C. Further, the EC50 in data set [1] is 39.8 nM. In the case of `CCOCc1nnc2c(C)c(-c3ccc4c(ccn4-c4ccc(C)nc4)c3)ccn12` [Compound 49], the melting point came to 108.5 °C. The EC50 in data set [1] is 174 nM. For `Cc1cc(-n2ccc3cc(-c4ccn5c(CC6CC6)nnc5c4C(F)(F)F)ccc32)ccn1` [Compound 46], in that order: above 300 °C and 8.13 nM. For `Cc1ccc(-n2ccc3cc(-c4ccn5c(CC6CC6)nnc5c4C(F)(F)F)ccc32)cn1` [Compound 36], in that order: 204 °C and 9.33 nM.

Compound `Clc1c(-c2cnc3c(ccn3CC3CC3)c2)ccn2c(CC3CC3)nnc12` [Compound 22, 8-Chloro-3-cyclopropylmethyl-7-(1-cyclopropylmethyl-1H-pyrrolo[2,3-b]pyridin-5-yl)-[1,2,4]triazolo[4,3-a]pyridine] displayed a melting point of 184.7 °C. Also, in data set [1], the EC50 is 324 nM. For `CCOCc1nnc2c(Cl)c(-c3ccc4c(ccn4-c4ccccn4)c3)ccn12` [Compound 18], in that order: 235 °C and 288 nM. For `Clc1c(-c2cnc3c(ccn3CC3CCC3)c2)ccn2c(CC3CC3)nnc12` [Compound 39], in that order: above 300 °C and 126 nM.

Compound `FC(F)(F)c1c(-c2ccc3c(ccn3-c3cccnc3)c2)ccn2c(CC3CC3)nnc12` [Compound 34] yielded a melting point of 144.3 °C.

Consider `Cc1c(-c2cnc3c(ccn3CC3CC3)c2)ccn2c(CC3CC3)nnc12` [Compound 40], for which the melting point is above 300 °C. In data set [1], the EC50 was 407 nM. As to `CCOCc1nnc2c(Cl)c(-c3ccc4c(ccn4-c4ncccn4)c3)ccn12` [Compound 19], the EC50 in data set [1] was 126 nM. `CCOCc1nnc2c(C(F)(F)F)c(-c3ccc4c(ccn4-c4cccnc4)c3)ccn12` [Compound 30]: the melting point turned out to be 182.4 °C. Besides, in data set [1], the EC50 was 33.9 nM.

For the compound `Clc1c(-c2ccc3c(ccn3-c3ccncc3)c2)ccn2c(CC3CC3)nnc12` [Compound 44], the melting point is above 300 °C. Also, the EC50 in data set [1] is 66.1 nM. Compound `Cc1ccc(-n2ccc3cc(-c4ccn5c(CC6CC6)nnc5c4C)ccc32)cn1` [Compound 35, 8-Methyl-3-cyclopropylmethyl-7-[1-(2-methylpyridin-5-yl)-1H-indol-5-yl]-[1,2,4]triazolo[4,3-a]pyridine] displayed a melting point of 263.3 °C. For the same compound, in data set [1], the EC50 is 70.8 nM. With `FC(F)(F)c1c(-c2ccc3c(ccn3-c3ccncc3)c2)ccn2c(CC3CC3)nnc12` [Compound 43], the melting point was above 300 °C. For the same compound, the EC50 in data set [1] was 16.6 nM.

`CCOCc1nnc2c(Cl)c(-c3ccc4[nH]ccc4c3)ccn12` [Compound 29] gave a melting point of 176.4 °C. For the same compound, the EC50 in data set [1] is 1260 nM. Regarding `Clc1c(-c2ccc3nn(Cc4cccnc4)cc3c2)ccn2c(CC3CC3)nnc12` [Compound 11], in data set [1], the EC50 was 871 nM.

Turning to `Clc1c(-c2ccc3[nH]ccc3c2)ccn2c(CC3CC3)nnc12` [Compound 20], the melting point was above 300 °C. The EC50 in data set [1] was 251 nM. For `Fc1cnccc1-n1ccc2cc(-c3ccn4c(CC5CC5)nnc4c3Cl)ccc21` [Compound 42, 8-Chloro-3-cyclopropylmethyl-7-[1-(3-fluoro-pyridin-4-yl)-1H-indol-5-yl]-[1,2,4]triazolo[4,3-a]pyridine], in that order: above 300 °C and 28.8 nM. For `Fc1cc(-c2ccn3c(CC4CC4)nnc3c2Cl)cc2cc[nH]c12` [Compound 28], in that order: 235.5 °C and 117 nM. `FC(F)(F)c1c(-c2cnc3[nH]ccc3c2)ccn2c(CC3CC3)nnc12` [Compound 24] gave a melting point above 300 °C. In data set [1], the EC50 is 1410 nM.

Regarding `Cc1ccc(-n2ccc3cc(-c4ccn5c(CC6CC6)nnc5c4Cl)ccc32)cn1` [Compound 21, 8-Chloro-3-cyclopropylmethyl-7-[1-(2-methylpyridin-5-yl)-1H-indol-5-yl]-[1,2,4]triazolo[4,3-a]pyridine], the melting point is 137.2 °C. Also, the EC50 in data set [1] was 23.4 nM.

For the compound `CCOCc1nnc2c(Cl)c(-c3ccc4c(ccn4-c4cccnc4)c3)ccn12` [Compound 26], the melting point was 233.2 °C. Further, in data set [1], the EC50 is 182 nM. For `CCOCc1nnc2c(C(F)(F)F)c(-c3ccc4c(ccn4-c4ccc(C)nc4)c3)ccn12` [Compound 32], in that order: 163.1 °C and 17.4 nM. Consider `CC(C)(O)Cn1ccc2cc(-c3ccn4c(CC5CC5)nnc4c3Cl)ccc21` [Compound 9], for which the EC50 in data set [1] was 158 nM. For `Clc1c(-c2cnc3c(ccn3-c3ccccn3)c2)ccn2c(CC3CC3)nnc12` [Compound 41], the melting point was above 300 °C. Moreover, the EC50 in data set [1] is 603 nM. For `FC(F)(F)c1c(-c2cc(Cl)c3[nH]ccc3c2)ccn2c(CC3CC3)nnc12` [Compound 14], in that order: above 300 °C and 11 nM. For `Clc1c(-c2cccc3[nH]ccc23)ccn2c(CC3CC3)nnc12` [Compound 13], in that order: above 300 °C and 813 nM.

`Clc1cc(-c2ccn3c(CC4CC4)nnc3c2Cl)cc2cc[nH]c12` [Compound 8] had a melting point of 233.5 °C. For the same compound, in data set [1], the EC50 was 25.1 nM. For `Clc1c(-c2ccc3c(ccn3-c3ncccn3)c2)ccn2c(CC3CC3)nnc12` [Compound 15], in that order: above 300 °C and 53.7 nM. For `FC(F)(F)Cc1nnc2c(Cl)c(-c3ccc4c(ccn4-c4ccccn4)c3)ccn12` [Compound 1], in that order: above 300 °C and 43.7 nM.

For `FC(F)(F)c1c(-c2ccc3c(ccn3-c3ncccn3)c2)ccn2c(CC3CC3)nnc12` [Compound 7], in data set [1], the EC50 is 11.5 nM. For the compound `CCOCc1nnc2c(Cl)c(-c3ccc4c(ccn4-c4ccc(C)nc4)c3)ccn12` [Compound 27], the melting point was 188.9 °C. The EC50 in data set [1] was 56.2 nM. `CCOCc1nnc2c(C(F)(F)F)c(-c3ccc4[nH]ccc4c3)ccn12` [Compound 33] gave a melting point of 200.1 °C.
